Results on 48 compounds are retold here after US11040954B1, “CXCR3 receptor agonists” (RECEPTOS LLC, priority 2016, dated 2021).

The test addresses T1, CXCR3 (Homo sapiens, UniProt P49682).
T1 construct: host or cells: CHO-K1 (cAMP Hunter CHOK1 CXCR3 Gi cell line)
T1 sequence (P49682 1-368): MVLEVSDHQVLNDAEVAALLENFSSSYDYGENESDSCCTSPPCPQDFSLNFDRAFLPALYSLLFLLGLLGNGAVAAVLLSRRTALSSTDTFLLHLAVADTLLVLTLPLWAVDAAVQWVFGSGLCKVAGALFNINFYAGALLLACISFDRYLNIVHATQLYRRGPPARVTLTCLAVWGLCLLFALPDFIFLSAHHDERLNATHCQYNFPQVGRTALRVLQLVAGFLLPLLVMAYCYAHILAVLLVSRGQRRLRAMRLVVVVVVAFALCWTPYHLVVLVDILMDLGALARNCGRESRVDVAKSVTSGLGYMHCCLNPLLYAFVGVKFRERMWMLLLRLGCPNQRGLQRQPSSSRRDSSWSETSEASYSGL
Nature of the test: CXCR3 cAMP agonist assay (cAMP Hunter CHOK1 CXCR3 Gi cell line, forskolin-stimulated, HitHunter cAMP detection). In kind it is cell-based. The gist of the method:
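CHOK1 cells expressing human CXCR3 with Gi coupling, 50,000/well in suspension in HBSS/10 mM HEPES/0.1% BSA pH 7.4, were co-treated with 20 μM forskolin and compound (12-point, 0-10 μM, 1% DMSO) for 30 min. cAMP was read by enzyme-complementation luminescence; CXCL11 dose response set maximum efficacy.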

[1] abbreviates: cAMP Hunter CHOK1 CXCR3 Gi cells, 20 μM forskolin, 30 minutes, read-out: Activity (CXCR3 cAMP agonist assay compound EC50).

Like-named read-outs stand apart in the source and are kept apart here.

`Cc1cc(NC(=O)C(NC(=O)[C@@H]2Cc3ccccc3CN2C(=O)CCC(=O)c2ccccc2)C2CCNCC2)ccc1Cl` (mixture of isomers) [Compound 4-7]: the half-maximal effective concentration (EC50) under setting [1] is above 500 nM.

In the case of `O=C(CCC(=O)N1Cc2ccccc2C[C@H]1C(=O)NC1(C(=O)Nc2cccc(Cl)c2Cl)CCNCC1)c1ccccc1` [Compound 11-5], the EC50 under setting [1] is above 500 nM.

With `Cc1cc(NC(=O)C(NC(=O)[C@@H]2Cc3ccccc3CN2C(=O)CCC(=O)c2ccccc2)C2CCN(C)CC2)ccc1Cl` (mixture of isomers) [Compound 6-5], under setting [1], the half-maximal effective concentration (EC50) was in the range of 50 to 250 nM. On the same count and under the same terms, the value for `CC(C)(C)CC1CCCCN1C(=O)CCC(=O)N1Cc2ccccc2C[C@H]1C(=O)N[C@@H](CCN)C(=O)Nc1ccc(Cl)c(Cl)c1F` (stereo partly drawn) [Compound 15-14] was 50 to 250 nM; that for `Cc1cc(NC(=O)C2(NC(=O)[C@@H]3Cc4ccccc4CN3C(=O)CCC(=O)c3ccccc3)CCNCC2)c(F)cc1Cl` [Compound 11-3] was below 50 nM.

`Cc1cc(NC(=O)[C@H](CCN)NC(=O)[C@@H]2Cc3ccccc3CN2C(=O)CCC(=O)N2CCC[C@@H](C)C2)ccc1Cl` [Compound 12-57]: under setting [1], the EC50 is below 50 nM. In the case of `Cc1cc(NC(=O)[C@H](CCN)NC(=O)[C@@H]2Cc3ccccc3CN2C(=O)CCC(=O)N2CCC[C@H]2C)ccc1Cl` [Compound 12-46], the 50% effective concentration (EC50) under setting [1] is below 50 nM. Same read-out and setting: with `CCC1CCN(C(=O)CCC(=O)N2Cc3ccccc3C[C@H]2C(=O)N[C@@H](CCN)C(=O)Nc2ccc(Cl)c(C)c2)CC1` [Compound 12-61] the figure was below 50 nM. For `Cc1cc(NC(=O)[C@H](CCN)NC(=O)[C@@H]2Cc3ccccc3CN2C(=O)CCC(=O)N2CCNCC2)ccc1Cl` [Compound 12-115], the concentration for a half-maximal effect (EC50) under setting [1] is above 500 nM.

Turning to `Cc1cc(NC(=O)[C@H](CCN)NC(=O)[C@@H]2Cc3ccccc3CN2C(=O)CCC(=O)N2CC3(COC3)C2)ccc1Cl` [Compound 12-9], the EC50 under setting [1] was above 500 nM. As for `CN1CCN(CC[C@H](NC(=O)[C@@H]2Cc3ccccc3CN2C(=O)CCC(=O)c2ccccc2)C(=O)Nc2ccc3c(c2)CCC3)CC1` [Compound 24-2], under setting [1], the EC50 was in the range of 50 to 250 nM.

Take `CC[C@@H]1CCCCN1C(=O)CCC(=O)N1Cc2ccccc2C[C@H]1C(=O)N[C@@H](CCN)C(=O)Nc1ccc(Cl)c(C)c1` [Compound 12-112]: the EC50 under setting [1] is below 50 nM. For the compound `NCC[C@H](NC(=O)[C@@H]1Cc2ccccc2CN1C(=O)CCC(=O)c1ccccc1)C(=O)Nc1cc(Cl)c(Cl)cc1O` (racemic) [Compound 4-13], the 50% effective concentration (EC50) under setting [1] lay in the range of 50 to 250 nM. Same read-out and setting: the value for `Cc1ccc(C(=O)CCC(=O)N2Cc3ccccc3C[C@H]2C(=O)N[C@@H](CCCCN)C(=O)Nc2ccc(Cl)c(C)c2)cc1F` [Compound 7-5] was above 500 nM. On to `COc1cc(F)c(F)cc1NC(=O)[C@H](CCN)NC(=O)[C@@H]1Cc2ccccc2CN1C(=O)CCC(=O)c1ccccc1` [Compound 2-70], for which the EC50 under setting [1] fell in the range of 250 to 500 nM. With `NCC[C@H](NC(=O)[C@@H]1Cc2ccccc2CN1C(=O)CCC(=O)N1CCc2ccccc2C1)C(=O)Nc1ccc(Cl)c(Cl)c1F` [Compound 15-8], under setting [1], the EC50 is below 50 nM. With `COc1c(NC(=O)[C@H](CCN)NC(=O)[C@@H]2Cc3ccccc3CN2C(=O)CCC(=O)c2ccccc2)ccc2c1CCCC2` [Compound 2-62], the 50% effective concentration (EC50) under setting [1] fell in the range of 50 to 250 nM. In the case of `NCC[C@H](NC(=O)[C@@H]1Cc2ccccc2CN1C(=O)CCC(=O)c1ccccc1)C(=O)Nc1cc(F)ccc1Cl` [Compound 14-1, (S)—N—((S)-4-amino-1-((2-chloro-5-fluorophenyl)amino)-1-oxobutan-2-yl)-2-(4-oxo-4-phenylbutanoyl)-1,2,3,4-tetrahydroisoquinoline-3-carboxamide], the EC50 under setting [1] was in the range of 250 to 500 nM. As to `CC1(C)CCCN(C(=O)CCC(=O)N2Cc3cc(F)ccc3C[C@H]2C(=O)N[C@@H](CCN)C(=O)Nc2ccc(Cl)c(Cl)c2F)C1` [Compound 15-57], the concentration for a half-maximal effect (EC50) under setting [1] was below 50 nM. Turning to `CC1(C)CCCN(C(=O)CCC(=O)N2Cc3ccccc3C[C@H]2C(=O)NC2(C(=O)Nc3ccc(Cl)c(Cl)c3F)CCNCC2)C1` [Compound 12-130], the EC50 under setting [1] is below 50 nM. For the compound `CCc1ccc(NC(=O)[C@H](CCCCN)NC(=O)[C@@H]2Cc3ccccc3CN2C(=O)CCC(=O)c2ccccc2)cc1CC` [Compound 1-16], the concentration giving a half-maximal response (EC50) under setting [1] lay in the range of 50 to 250 nM. For the compound `NCC[C@H](NC(=O)[C@@H]1Cc2ccccc2CN1C(=O)CCC(=O)N1CCC2(CC2)C1)C(=O)Nc1ccc(Cl)c(Cl)c1F` [Compound 15-46], the concentration giving a half-maximal response (EC50) under setting [1] is below 50 nM. Regarding `Cc1cc(NC(=O)[C@H](CCN)NC(=O)[C@@H]2Cc3ccccc3CN2C(=O)CCC(=O)NCC2CCCC2)ccc1Cl` [Compound 12-10], the EC50 under setting [1] fell in the range of 50 to 250 nM. As for `Cc1cc(NC(=O)[C@H](CCN)NC(=O)[C@@H]2Cc3ccccc3CN2C(=O)CCC(=O)N2CCN(C)CC2(C)C)ccc1Cl` [Compound 12-103], the EC50 under setting [1] was below 50 nM.

`CC1CN(C(=O)CCC(=O)N2Cc3ccccc3C[C@H]2C(=O)N[C@@H](CCN)C(=O)Nc2ccc(Cl)c(Cl)c2F)CC1C` (stereo partly drawn) [Compound 15-29]: under setting [1], the EC50 was below 50 nM. With `Cc1cc(NC(=O)[C@H](CCN)NC(=O)[C@@H]2Cc3ccccc3CN2C(=O)CCC(=O)N2CCN(C)C(=O)C2)ccc1Cl` [Compound 12-37], the EC50 under setting [1] lay in the range of 50 to 250 nM. Regarding `O=C(NC1(C(=O)Nc2ccc(Cl)c(Cl)c2F)CCNCC1)[C@@H]1Cc2ccccc2CN1C(=O)CCC(=O)N1CCCC12CCC2` [Compound 12-136], under setting [1], the 50% effective concentration (EC50) was below 50 nM. `COc1c(NC(=O)[C@H](CCN)NC(=O)[C@@H]2Cc3ccccc3CN2C(=O)CCC(=O)c2ccccc2)ccc(Cl)c1Cl` [Compound 14-27]: the 50% effective concentration (EC50) under setting [1] was above 500 nM. The same measure, in the same setting: with `Cc1cccc(Cl)c1NC(=O)[C@H](CCN)NC(=O)[C@@H]1Cc2ccccc2CN1C(=O)CCC(=O)c1ccccc1` [Compound 14-10] the figure was above 500 nM. `Cc1cc(NC(=O)[C@H](CCN)NC(=O)[C@@H]2Cc3ccccc3CN2C(=O)CCC(=O)N2CCC(=O)CC2)ccc1Cl` [Compound 12-86] came in with an EC50 of 250 to 500 nM. Take `CC(C)C1CCCN1C(=O)CCC(=O)N1Cc2ccccc2C[C@H]1C(=O)N[C@@H](CCN)C(=O)Nc1ccc(Cl)c(Cl)c1F` (stereo partly drawn) [Compound 15-10]: the EC50 under setting [1] was below 50 nM. Still for that read-out and setting: the value for `Cc1cc(NC(=O)[C@H](CCN)NC(=O)[C@@H]2Cc3ccccc3CN2C(=O)CCC(=O)NCCC(C)(C)C)ccc1Cl` [Compound 12-2] was below 50 nM; that for `O=C(CCC(=O)N1Cc2ccccc2C[C@H]1C(=O)N[C@@H](CCN1CCC(F)(F)CC1)C(=O)Nc1ccc(Cl)c(Cl)c1F)c1ccccc1` [Compound 23-2] was 50 to 250 nM. As for `Cc1cc(NC(=O)[C@H](CCN)NC(=O)[C@@H]2Cc3ccccc3CN2C(=O)CCC(=O)N2CCCC23CCC3)ncc1Cl` [Compound 12-156], under setting [1], the 50% effective concentration (EC50) was below 50 nM. Same read-out and setting: with `Cc1cc(NC(=O)[C@H](CCN)NC(=O)[C@@H]2Cc3ccccc3CN2C(=O)CCC(=O)N2CC[C@H](N(C)C)C2)ccc1Cl` [Compound 12-49] the figure was below 50 nM. As to `CC1(C)CCCN1C(=O)CCC(=O)N1Cc2ccccc2C[C@H]1C(=O)N[C@@H](CCN)C(=O)Nc1ccc(Cl)c(Cl)c1F` [Compound 15-4], the EC50 under setting [1] was below 50 nM. `NCC[C@H](NC(=O)[C@@H]1Cc2ccccc2CN1C(=O)CCC(=O)N1CCCCCC1)C(=O)Nc1ccc(Cl)c(Cl)c1F` [Compound 15-15]: the concentration giving a half-maximal response (EC50) under setting [1] was below 50 nM. `NCC[C@H](NC(=O)[C@@H]1Cc2ccccc2CN1C(=O)CCC(=O)N1CCC[C@@H]1c1ccccc1)C(=O)Nc1ccc(Cl)c(Cl)c1F` [Compound 12-148]: the EC50 under setting [1] is 250 to 500 nM. Regarding `NCC[C@H](NC(=O)[C@@H]1Cc2ccccc2CN1C(=O)CCC(=O)c1ccccc1)C(=O)NC1Cc2ccccc2C1` [Compound 2-66], under setting [1], the EC50 is below 50 nM. `CC[C@@H]1CCN(C(=O)CCC(=O)N2Cc3ccccc3C[C@H]2C(=O)N[C@@H](CCN)C(=O)Nc2ccc(Cl)c(C)c2)C1` [Compound 12-154]: the EC50 under setting [1] is below 50 nM. As for `Cc1cc(NC(=O)[C@H](CCN)NC(=O)[C@@H]2Cc3ccccc3CN2C(=O)CCC(=O)NC2(C(F)(F)F)CC2)ccc1Cl` [Compound 12-85], the EC50 under setting [1] was above 500 nM.

As for `COCC1CCCCN1C(=O)CCC(=O)N1Cc2ccccc2C[C@H]1C(=O)N[C@@H](CCN)C(=O)Nc1ccc(Cl)c(Cl)c1F` (stereo partly drawn) [Compound 15-16], the EC50 under setting [1] is below 50 nM. In the case of `CN(C)CCN(C)C(=O)CCC(=O)N1Cc2ccccc2C[C@H]1C(=O)N[C@@H](CCN)C(=O)Nc1ccc(Cl)c(Cl)c1F` [Compound 15-28], the EC50 under setting [1] is above 500 nM. As to `Cc1cc(NC(=O)[C@H](CCN)NC(=O)[C@@H]2Cc3ccccc3CN2C(=O)CCC(=O)c2ccccc2)cc(C)c1Cl` [Compound 2-39], under setting [1], the concentration giving a half-maximal response (EC50) was below 50 nM. Regarding `NCC[C@H](NC(=O)[C@@H]1Cc2ccccc2CN1C(=O)CCC(=O)c1ccccc1)C(=O)Nc1cc(Cl)c(F)c(Cl)c1` [Compound 27-2], the concentration giving a half-maximal response (EC50) under setting [1] lay within 250 to 500 nM.

In the case of `NCC[C@H](NC(=O)[C@@H]1Cc2ccccc2CN1C(=O)CCC(=O)c1ccccc1)C(=O)Nc1ccc2c(c1)C(=O)CC2` [Compound 2-68], under setting [1], the EC50 was in the range of 50 to 250 nM. The same measure, in the same setting: with `Cc1cc(NC(=O)[C@H](CCN)NC(=O)[C@@H]2Cc3ccccc3CN2C(=O)CCC(=O)N2CCC(C(C)(C)C)C2)ccc1Cl` (stereo partly drawn) [Compound 12-75] the figure was below 50 nM; with `Cc1cc(NC(=O)[C@H](CCN)NC(=O)[C@@H]2Cc3ccccc3CN2C(=O)CCC(=O)N2CCCC3(CCC3)C2)ncc1Cl` [Compound 12-158], below 50 nM.
